For this experiment, the system named is thiolated MG binding aptamer (RNA, aptamer) GGAUCCCGACUGGCGAGAGCCAGGUAACGAAUGGAUCC
The experiment can be described thus: cyclic voltammetry / DPV of captured MG on aptamer electrode; EIS. The conditions noted are these: Na+ / K+ (Na2HPO4/KH2PO4 buffer); phosphate buffer pH 7.4, room temperature, 2 h; 1.0 and 10 μM MG; immobilised aptamer.

For `CN(C)c1ccc(C(=C2C=CC(=[N+](C)C)C=C2)c2ccccc2)cc1`, the binding entry is “yes”.

The record behind these values is paper PMC6409966 (2019).
